Experimental data as given in patent US10881599B2, “Whitening composition including novel kaempferol-based compound derived from post-fermented tea” (AMOREPACIFIC CORPORATION, priority 2017, dated 2021).
Each block holds one compound with its values, some of them ahead of it.

Columns and labels:
[1] = molecular target: mushroom tyrosinase; assay: Tyrosinase activity-inhibitory effect; assay type: biochemical; details: L-tyrosine, 20 minutes at 37° C., absorbance at 490 nm
Experimental: The tyrosinase activity-inhibitory effect of new material 33 was evaluated. Specifically, tyrosinase and tyrosine derived from mushrooms were obtained from Sigma Chemical. […] Tyrosinase activity was assessed by measuring the absorbance at 490 nm using a microplate reader (Bio-Rad 3550, Richmond, Calif., U.S.A.) after an enzyme reaction for 20 minutes at 37° C.

[2] = test system: Mel-Ab cell line; assay: Melanin production-inhibitory effect (Dooley's method); assay type: cell-based, C57BL/6; details: Mel-Ab cells, melanin after 5 days, absorbance at 400 nm
[3] = test system: skin; assay: Human repeated insult patch test (HRIPT), skin accumulation stimulation; assay type: in vivo; parameters: key to Skin reactivity (ICDRG criteria): −: negative (no response); ±: doubtful or slight erythema, etc.; +: weak reaction (which is accompanied with no phlyctenule), erythema, papule; ++: severe reaction (which is accompanied with phlyctenule), erythema, papule, phlyctenule; +++: strong reaction, bullae reaction; details: for Number of subjects with ±, +, or ++ reactivity, 1st: 1st patch; for Number of subjects with ±, +, or ++ reactivity, 2nd: 2nd patch; for Number of subjects with ±, +, or ++ reactivity, 3rd: 3rd patch; for Number of subjects with ±, +, or ++ reactivity, 4th: 4th patch; for Number of subjects with ±, +, or ++ reactivity, 5th: 5th patch; for Number of subjects with ±, +, or ++ reactivity, 6th: 6th patch; for Number of subjects with ±, +, or ++ reactivity, 7th: 7th patch; for Number of subjects with ±, +, or ++ reactivity, 8th: 8th patch; for Average reactivity: 9 patches, 15 subjects, less than 3 is considered stable; for Number of subjects with ±, +, or ++ reactivity, 9th: 9th patch
Experimental: Human repeated insult patch tests (HRIPT) were performed to confirm the skin accumulation stimulation of the kaempferol3-O-[2-O″-(E)-p-coumaroyl][beta-D-glucopyranosyl-(1→3)-O-alpha-L-rhamnopyranosyl-(1→6)-O-beta-D-glucopyranoside] and to calculate the concentration range available for the skin.
Specifically, 15 healthy adult subjects were randomly selected, and the test composition (the skin composition including an emulsifier, a stabilizer, purified water, etc. in addition to the compound) containing 0.5 wt %, 1 wt %, and 3 wt % of the compound was added dropwise by 20 μl per chamber (IQ chamber, Epitest Ltd, Finland). After 24 hours from patching the upper right part of the back of a subject, it was replaced with the new patch. A total of 9 patches were conducted, three times a week for total 3 weeks, in such manner, the skin reactions before and after patch were examined every time, and the skin reactions until 48 hours after removing the final patch were observed, and the average reactivity was observed.
The skin response was determined according to the criteria of the International Contact Dermatitis Research Group (ICDRG). ‘New material 33’ in the table above is kaempferol3-O-[2-O″-(E)-p-coumaroyl][beta-D-glucopyranosyl-(1→3)-O-alpha-L-rhamnopyranosyl-(1→6)-O-beta-D-glucopyranoside].

Tyrosinase activity-inhibitory effect IC50 [1]: 149 ppm
Structure (SMILES): OC[C@H]1O[C@@H](Oc2ccc(O)cc2)[C@H](O)[C@@H](O)[C@@H]1O [Arbutin, reference compound]

Melanin production-inhibitory effect IC50 [2]: 39.36 ppm
Structure (SMILES): O=c1cc(CO)occ1O [Kojic acid, reference compound]

Skin reactivity (ICDRG criteria) ([3]; 0.5 wt %, 1 wt % and 3 wt %, all subjects, all patches): −
Number of subjects with ±, +, or ++ reactivity, 1st ([3]; 0.5 wt %, line 1 of 3 (±)): 0 person
Number of subjects with ±, +, or ++ reactivity, 1st ([3]; 0.5 wt %, line 2 of 3 (+)): 0 person
Number of subjects with ±, +, or ++ reactivity, 1st ([3]; 0.5 wt %, line 3 of 3 (++)): 0 person
Number of subjects with ±, +, or ++ reactivity, 2nd ([3]; 0.5 wt %, line 1 of 3 (±)): 0 person
Number of subjects with ±, +, or ++ reactivity, 2nd ([3]; 0.5 wt %, line 2 of 3 (+)): 0 person
Number of subjects with ±, +, or ++ reactivity, 2nd ([3]; 0.5 wt %, line 3 of 3 (++)): 0 person
Number of subjects with ±, +, or ++ reactivity, 3rd ([3]; 0.5 wt %, line 1 of 3 (±)): 0 person
Number of subjects with ±, +, or ++ reactivity, 3rd ([3]; 0.5 wt %, line 2 of 3 (+)): 0 person
Number of subjects with ±, +, or ++ reactivity, 3rd ([3]; 0.5 wt %, line 3 of 3 (++)): 0 person
Number of subjects with ±, +, or ++ reactivity, 4th ([3]; 0.5 wt %, line 1 of 3 (±)): 0 person
Number of subjects with ±, +, or ++ reactivity, 4th ([3]; 0.5 wt %, line 2 of 3 (+)): 0 person
Number of subjects with ±, +, or ++ reactivity, 4th ([3]; 0.5 wt %, line 3 of 3 (++)): 0 person
Number of subjects with ±, +, or ++ reactivity, 5th ([3]; 0.5 wt %, line 1 of 3 (±)): 0 person
Number of subjects with ±, +, or ++ reactivity, 5th ([3]; 0.5 wt %, line 2 of 3 (+)): 0 person
Number of subjects with ±, +, or ++ reactivity, 5th ([3]; 0.5 wt %, line 3 of 3 (++)): 0 person
Number of subjects with ±, +, or ++ reactivity, 6th ([3]; 0.5 wt %, line 1 of 3 (±)): 0 person
Number of subjects with ±, +, or ++ reactivity, 6th ([3]; 0.5 wt %, line 2 of 3 (+)): 0 person
Number of subjects with ±, +, or ++ reactivity, 6th ([3]; 0.5 wt %, line 3 of 3 (++)): 0 person
Number of subjects with ±, +, or ++ reactivity, 7th ([3]; 0.5 wt %, line 1 of 3 (±)): 0 person
Number of subjects with ±, +, or ++ reactivity, 7th ([3]; 0.5 wt %, line 2 of 3 (+)): 0 person
Number of subjects with ±, +, or ++ reactivity, 7th ([3]; 0.5 wt %, line 3 of 3 (++)): 0 person
Number of subjects with ±, +, or ++ reactivity, 8th ([3]; 0.5 wt %, line 1 of 3 (±)): 0 person
Number of subjects with ±, +, or ++ reactivity, 8th ([3]; 0.5 wt %, line 2 of 3 (+)): 0 person
Number of subjects with ±, +, or ++ reactivity, 8th ([3]; 0.5 wt %, line 3 of 3 (++)): 0 person
Average reactivity ([3]; 0.5 wt %): 0
Number of subjects with ±, +, or ++ reactivity, 9th ([3]; 0.5 wt %, line 1 of 3 (±)): 0 person
Number of subjects with ±, +, or ++ reactivity, 9th ([3]; 0.5 wt %, line 2 of 3 (+)): 0 person
Number of subjects with ±, +, or ++ reactivity, 9th ([3]; 0.5 wt %, line 3 of 3 (++)): 0 person
Number of subjects with ±, +, or ++ reactivity, 1st ([3]; 1 wt %, line 1 of 3 (±)): 0 person
Number of subjects with ±, +, or ++ reactivity, 1st ([3]; 1 wt %, line 2 of 3 (+)): 0 person
Number of subjects with ±, +, or ++ reactivity, 1st ([3]; 1 wt %, line 3 of 3 (++)): 0 person
Number of subjects with ±, +, or ++ reactivity, 2nd ([3]; 1 wt %, line 1 of 3 (±)): 0 person
Number of subjects with ±, +, or ++ reactivity, 2nd ([3]; 1 wt %, line 2 of 3 (+)): 0 person
Number of subjects with ±, +, or ++ reactivity, 2nd ([3]; 1 wt %, line 3 of 3 (++)): 0 person
Number of subjects with ±, +, or ++ reactivity, 3rd ([3]; 1 wt %, line 1 of 3 (±)): 0 person
Number of subjects with ±, +, or ++ reactivity, 3rd ([3]; 1 wt %, line 2 of 3 (+)): 0 person
Number of subjects with ±, +, or ++ reactivity, 3rd ([3]; 1 wt %, line 3 of 3 (++)): 0 person
Number of subjects with ±, +, or ++ reactivity, 4th ([3]; 1 wt %, line 1 of 3 (±)): 0 person
Number of subjects with ±, +, or ++ reactivity, 4th ([3]; 1 wt %, line 2 of 3 (+)): 0 person
Number of subjects with ±, +, or ++ reactivity, 4th ([3]; 1 wt %, line 3 of 3 (++)): 0 person
Number of subjects with ±, +, or ++ reactivity, 5th ([3]; 1 wt %, line 1 of 3 (±)): 0 person
Number of subjects with ±, +, or ++ reactivity, 5th ([3]; 1 wt %, line 2 of 3 (+)): 0 person
Number of subjects with ±, +, or ++ reactivity, 5th ([3]; 1 wt %, line 3 of 3 (++)): 0 person
Number of subjects with ±, +, or ++ reactivity, 6th ([3]; 1 wt %, line 1 of 3 (±)): 0 person
Number of subjects with ±, +, or ++ reactivity, 6th ([3]; 1 wt %, line 2 of 3 (+)): 0 person
Number of subjects with ±, +, or ++ reactivity, 6th ([3]; 1 wt %, line 3 of 3 (++)): 0 person
Number of subjects with ±, +, or ++ reactivity, 7th ([3]; 1 wt %, line 1 of 3 (±)): 0 person
Number of subjects with ±, +, or ++ reactivity, 7th ([3]; 1 wt %, line 2 of 3 (+)): 0 person
Number of subjects with ±, +, or ++ reactivity, 7th ([3]; 1 wt %, line 3 of 3 (++)): 0 person
Number of subjects with ±, +, or ++ reactivity, 8th ([3]; 1 wt %, line 1 of 3 (±)): 0 person
Number of subjects with ±, +, or ++ reactivity, 8th ([3]; 1 wt %, line 2 of 3 (+)): 0 person
Number of subjects with ±, +, or ++ reactivity, 8th ([3]; 1 wt %, line 3 of 3 (++)): 0 person
Average reactivity ([3]; 1 wt %): 0
Number of subjects with ±, +, or ++ reactivity, 9th ([3]; 1 wt %, line 1 of 3 (±)): 0 person
Number of subjects with ±, +, or ++ reactivity, 9th ([3]; 1 wt %, line 2 of 3 (+)): 0 person
Number of subjects with ±, +, or ++ reactivity, 9th ([3]; 1 wt %, line 3 of 3 (++)): 0 person
Number of subjects with ±, +, or ++ reactivity, 1st ([3]; 3 wt %, line 1 of 3 (±)): 0 person
Number of subjects with ±, +, or ++ reactivity, 1st ([3]; 3 wt %, line 2 of 3 (+)): 0 person
Number of subjects with ±, +, or ++ reactivity, 1st ([3]; 3 wt %, line 3 of 3 (++)): 0 person
Number of subjects with ±, +, or ++ reactivity, 2nd ([3]; 3 wt %, line 1 of 3 (±)): 0 person
Number of subjects with ±, +, or ++ reactivity, 2nd ([3]; 3 wt %, line 2 of 3 (+)): 0 person
Number of subjects with ±, +, or ++ reactivity, 2nd ([3]; 3 wt %, line 3 of 3 (++)): 0 person
Number of subjects with ±, +, or ++ reactivity, 3rd ([3]; 3 wt %, line 1 of 3 (±)): 0 person
Number of subjects with ±, +, or ++ reactivity, 3rd ([3]; 3 wt %, line 2 of 3 (+)): 0 person
Number of subjects with ±, +, or ++ reactivity, 3rd ([3]; 3 wt %, line 3 of 3 (++)): 0 person
Number of subjects with ±, +, or ++ reactivity, 4th ([3]; 3 wt %, line 1 of 3 (±)): 0 person
Number of subjects with ±, +, or ++ reactivity, 4th ([3]; 3 wt %, line 2 of 3 (+)): 0 person
Number of subjects with ±, +, or ++ reactivity, 4th ([3]; 3 wt %, line 3 of 3 (++)): 0 person
Number of subjects with ±, +, or ++ reactivity, 5th ([3]; 3 wt %, line 1 of 3 (±)): 0 person
Number of subjects with ±, +, or ++ reactivity, 5th ([3]; 3 wt %, line 2 of 3 (+)): 0 person
Number of subjects with ±, +, or ++ reactivity, 5th ([3]; 3 wt %, line 3 of 3 (++)): 0 person
Number of subjects with ±, +, or ++ reactivity, 6th ([3]; 3 wt %, line 1 of 3 (±)): 0 person
Number of subjects with ±, +, or ++ reactivity, 6th ([3]; 3 wt %, line 2 of 3 (+)): 0 person
Number of subjects with ±, +, or ++ reactivity, 6th ([3]; 3 wt %, line 3 of 3 (++)): 0 person
Number of subjects with ±, +, or ++ reactivity, 7th ([3]; 3 wt %, line 1 of 3 (±)): 0 person
Number of subjects with ±, +, or ++ reactivity, 7th ([3]; 3 wt %, line 2 of 3 (+)): 0 person
Number of subjects with ±, +, or ++ reactivity, 7th ([3]; 3 wt %, line 3 of 3 (++)): 0 person
Number of subjects with ±, +, or ++ reactivity, 8th ([3]; 3 wt %, line 1 of 3 (±)): 0 person
Number of subjects with ±, +, or ++ reactivity, 8th ([3]; 3 wt %, line 2 of 3 (+)): 0 person
Number of subjects with ±, +, or ++ reactivity, 8th ([3]; 3 wt %, line 3 of 3 (++)): 0 person
Average reactivity ([3]; 3 wt %): 0
Number of subjects with ±, +, or ++ reactivity, 9th ([3]; 3 wt %, line 1 of 3 (±)): 0 person
Number of subjects with ±, +, or ++ reactivity, 9th ([3]; 3 wt %, line 2 of 3 (+)): 0 person
Number of subjects with ±, +, or ++ reactivity, 9th ([3]; 3 wt %, line 3 of 3 (++)): 0 person
Tyrosinase activity-inhibitory effect IC50 [1]: 11 ppm
Melanin production-inhibitory effect IC50 [2]: 15.7 ppm
Structure (SMILES): C[C@@H]1O[C@@H](OC[C@H]2O[C@@H](Oc3c(-c4ccc(O)cc4)oc4cc(O)cc(O)c4c3=O)[C@H](OC(=O)/C=C/c3ccc(O)cc3)[C@@H](O)[C@@H]2O)[C@H](O)[C@H](O[C@@H]2O[C@H](CO)[C@@H](O)[C@H](O)[C@H]2O)[C@H]1O [new material 33, kaempferol3-O-[2-O″-(E)-p-coumaroyl][beta-D-glucopyranosyl-(1→3)-O-alpha-L-rhamnopyranosyl-(1→6)-O-beta-D-glucopyranoside]]
